pIC50: −log10 of the molar value. Values after ≈ are worked out from the molar mass of the structure shown. Where two headings read alike, the source gives them in different places.
How the values were obtained:
[1] = target: HiBiT tagged Wee1 (Homo sapiens, UniProt P30291); experiment: Wee1 protein degradation assay (HiBiT assay); type: cell-based; conditions: engineered HT-1080 cells, 20 hours; for Dmax: maximum percentage of Wee1 degradation, read-out: HiBiT Wee1: Dmax
[2] = tested on: NCI-H1048 cells; experiment: NCI-H1048 cell proliferation assay (CTG assay); type: cell-based; conditions: Homo sapiens, 120 hours, read-out: CTG cellular assay_H1048: IC50
Method in brief: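 NCI-H1048 small cell lung cancer cells (RPMI-1640, 10% FBS) were exposed to 10-point half-log compound dilutions from 10 μM to 0.316 nM for 120 h at 37° C., 5% CO2. Viability was read by CellTiter-Glo luminescence and normalized to DMSO as percent of control. EC50 and DC50 were fitted with a four-parameter logistic model.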

[3] = Determination of kinetic solubility; type: physicochemical; conditions: PBS, aqueous buffer, kinetic from dmso stock, shaking at 25° C. for 2 hours
Protocol: An aliquot of 30 μL stock solution (10 mM) was placed in order into their proper 96-well rack. 970 μL of PBS was added into each vial of the cap-less solubility sample plate. The assay was performed in duplicate. In each vial, a stir stick was added and sealed with a molded PTFE/Silicone plug. […] Plugs were removed after 2 hours and the stir sticks were removed using a big magnet. Then the samples were transferred from the solubility sample plate into the filter plate. All the samples were filtered using the vacuum manifold. An aliquot of 5 μL filtrate was mixed with 5 μL DMSO and 490 μL of a mixture of H2O and acetonitrile (v:v, 1:1) containing internal standard. A certain proportion of ultrapure water was used to dilute according to the peak shape. The dilution factor was changed according to the solubility values and the LC-MS/MS signals.
An aliquot of 6 μL stock solution (10 mM in DMSO) was transferred from standard (STD) stock plate into a new plate, and then 194 μL of DMSO was added to get a STD working solution of 300 μM. Then 5 μL of 300 μM working solution was mixed with 5 μL of DMSO and 490 μL of a mixture of H2O and acetonitrile (v:v, 1:1) containing internal standard and the final STD concentration was 3 μM. The STD concentration were changed according to the LC-MS/MS signals.
The sample plate was put into the autosampler and the test compound concentration was determined by LC-MS/MS.

[4] = Pharmacokinetic study in mice (IV and PO); type: in vivo; conditions: male CD1 mice; for F: PO (10 mg/kg) vs IV (2 mg/kg); for AUC(0-inf) / clearance / half-life / Cmax: mouse, plasma; for half-life: read-out: T½ (converted)
Protocol: Objective: the objective of this study was to determine the pharmacokinetics of test compound following intravenous (IV) and oral (PO) administration to male CD1 mice.
Materials: Male CD1 mouse (20-30 g, 6-8 weeks, Zhejiang Vital River Laboratory Animal Technology Co., Ltd.).
The CD1 mice were administered with the test article intravenously via tail vein at 2 mg/kg or orally at 10 mg/kg. The animals had free access to food and water. After dose administration, blood was collected from the dorsal metatarsal vein at 5 min (0.0833 h, IV only), 15 min (0.25 h), 30 min (0.5 h), 60 min (1 h), 2 h, 4 h, 6 h, 8 h and 24 h. Blood samples were placed in an anticoagulant tube with EDTA-K2, mixed adequately and centrifuged at 4° C., 4000 g for 5 minutes to get the plasma. The plasma samples were stored at −75±15° C. until analyzed by LC-MS/MS. The PK parameters were calculated using non-compartmental model by Phoenix WinNonlin 6.1 (Linear/log trapezoidal).

[5] = Permeability study in MDCKII cells (bidirectional A to B and B to A); type: in vitro ADME, Canine; conditions: dog, MDCK; for efflux ratio at 120 min, 1 μM: pH 7.4; for Papp A→B at 120 min, 1 μM / Papp B→A at 120 min, 1 μM: pH 7.4, 120 minutes; for Papp A→B at 120 min, 1 μM: apical to basolateral; for Papp B→A at 120 min, 1 μM: basolateral to apical
Protocol: MDCKII (Madin-Darby Canine Kidney cell line, wild type) cell was obtained from the Netherlands Cancer Institute, which was used for P-gp substrates or inhibitors screening and predicting the permeability of compounds with high efflux barriers such as duodenum, blood-brain barrier, hepatocyte nucleus and renal unit. The MDCKII cells with 10 to 22 passages were used for the permeability investigation.
MDCKII cells were cultured using Minimum Essential Media (MEM) at 37° C., 5% CO2 and 95% relative humidity. The cells were seeded in Transwell plate with 5.45×10^5 cells/cm^2. Then the cells were incubated in CO2 Incubator for 4-7 days for transport studies.
The complete medium was prepared by adding 10% FBS (fetal bovine serum) and 1% glutamax-1 to 500 ml MEM.
The dose concentrations of test compounds and control compounds were 1 μM. The bidirectional (A to B and B to A) permeability was evaluated. All incubations are performed in duplicate.
The regents were pre-incubated at 37±1° C. for 30 minutes. To determine the transport rate from apical to basolateral direction, 125 μL working solution (1 μM) was added to the Transwell insert (apical compartment), and 50 μL sample was immediately transferred from the apical compartment to a new 96-well plate as the initial donor sample (A-B) and mixed with 200 μL of acetonitrile or methanol containing IS. And 235 μL HBSS (10 mM HEPES, pH 7.4) was added to the receiver plate (basolateral compartment). To determine the transport rate from basolateral to apical direction, 285 μL working solution (1 μM) was added to the receiver plate (basolateral compartment), and 50 μL sample was immediately transferred from the basolateral compartment to a new 96-well plate as the initial donor sample (B-A) and mixed with 200 μL of acetonitrile or methanol containing IS. And 75 μL HBSS (10 mM HEPES, pH 7.4) was added to the Transwell insert (apical compartment). Then the plate was incubated at […] with 5% CO2 and 95% relative humidity for 120 minutes.
At the end of incubation, 50 μL samples from donor and receiver sides were transferred into a new 96-well plate. 200 μL of ice-cold acetonitrile or methanol containing appropriate internal standards (IS) was mixed with the samples. After vortex for 10 minutes, the samples are centrifuged at 3220 g for 40 minutes. An aliquot of 100 μL of the supernatant was mixed with appropriate volume of ultra-pure water and was analyzed by LC-MS/MS. All incubations are performed in duplicate.
The integrity of MDCKII cells were checked by Lucifer Yellow Rejection Assay after transport assay. The plate(s) were incubated with Lucifer Yellow solution at 37° C. for 30 minutes. The Lucifer Yellow fluorescence (to monitor monolayer integrity) was measured in a fluorescence plate reader at 480 nm excitation and 530 nm emission.
Test and reference compounds (metoprolol and digoxin) were semi-quantitatively analyzed, and the peak area ratio of the analyte and the internal standard was used to evaluate the concentration of the compounds.

[6] = pH 3.0, read-out: Kinetic solubility (μM) pH 3.0
[7] = pH 5.0, read-out: Kinetic solubility (μM) pH 5.0

Chain of HiBiT tagged Wee1 (P30291 whole entry): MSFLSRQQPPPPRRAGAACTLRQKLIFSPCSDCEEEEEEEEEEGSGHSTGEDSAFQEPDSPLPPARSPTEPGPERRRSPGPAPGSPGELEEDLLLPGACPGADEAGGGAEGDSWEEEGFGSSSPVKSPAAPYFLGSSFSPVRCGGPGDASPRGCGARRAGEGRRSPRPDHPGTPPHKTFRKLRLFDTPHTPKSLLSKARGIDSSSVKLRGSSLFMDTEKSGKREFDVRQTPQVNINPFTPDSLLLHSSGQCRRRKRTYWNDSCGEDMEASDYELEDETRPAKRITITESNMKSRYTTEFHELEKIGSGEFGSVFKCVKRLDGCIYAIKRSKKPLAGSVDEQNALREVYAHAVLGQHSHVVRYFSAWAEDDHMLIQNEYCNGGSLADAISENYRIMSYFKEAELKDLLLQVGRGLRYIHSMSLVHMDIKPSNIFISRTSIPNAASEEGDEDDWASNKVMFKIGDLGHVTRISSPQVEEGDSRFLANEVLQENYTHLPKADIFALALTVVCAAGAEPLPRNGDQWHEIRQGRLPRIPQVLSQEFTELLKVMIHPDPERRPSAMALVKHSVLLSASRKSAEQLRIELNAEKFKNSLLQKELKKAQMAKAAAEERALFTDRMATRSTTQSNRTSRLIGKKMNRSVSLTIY

DC50 [1] [nM]	Dmax [1] [%]	pIC50 [2]	solubility kinetic at 2 h [3, 6] [µM]	solubility kinetic at 2 h [3, 7] [µM]	F [4] [%]	AUC(0-inf) ([4]; IV (2 mg/kg)) [ng·h/mL]	clearance ([4]; IV (2 mg/kg)) [mL/min/kg]	half-life ([4]; IV (2 mg/kg)) [h]	AUC(0-inf) ([4]; PO (10 mg/kg)) [ng·h/mL]	Cmax ([4]; PO (10 mg/kg)) [ng/mL]	half-life ([4]; PO (10 mg/kg)) [h]	efflux ratio at 120 min, 1 μM [5]	Papp A→B at 120 min, 1 μM [5] [×10⁻⁶ cm/s]	Papp B→A at 120 min, 1 μM [5] [×10⁻⁶ cm/s]	Compound
< 100	50 to 75	≥ 7.60	252 (≈ 212 µg/mL)	148 (≈ 124 µg/mL)	23.6	26700	1.25	7	31600	1880	7.2	–	–	–	C=CCn1c(=O)c2cnc(Nc3ccc(C4CCN(CC5CCN(c6cccc7c6n(C)c(=O)n7C6CCC(=O)NC6=O)CC5)CC4)cc3)nc2n1-c1cccc(C(C)(C)O)n1 (centres unmarked) [Compound 66]
< 100	50 to 75	≥ 7.60	194 (≈ 163 µg/mL)	55.7 (≈ 46.8 µg/mL)	38.9	6980	4.78	5.7	13600	902	5.2	2.88	2.48	7.09	C=CCn1c(=O)c2cnc(Nc3ccc(N4CCC(CN5CCC(c6cccc7c6n(C)c(=O)n7C6CCC(=O)NC6=O)CC5)CC4)cc3)nc2n1-c1cccc(C(C)(C)O)n1 (centres unmarked) [Compound 55]
< 100	> 75	≥ 7.60	233	132	106	10900	3.24	3.03	53200	4210	2.95	0.89	2.37	2.11	C=CCn1c(=O)c2cnc(Nc3ccc(N4CCN(CC5CCN(c6ccc(NC7CCC(=O)NC7=O)cc6F)CC5)CC4)cc3)nc2n1-c1ccc2c(n1)[C@@](O)(CC)CC2 (mixture of isomers) [Compound 110]
< 100	50 to 75	≥ 7.60	–	–	–	–	–	–	–	–	–	0.94	1.35	1.27	C=CCn1c(=O)c2cnc(Nc3ccc(N4CCN(CC5CCN(c6cccc7c6n(C)c(=O)n7C6CCC(=O)NC6=O)CC5)CC4)cc3)nc2n1-c1cccc(C(C)(C)O)n1 (centres unmarked) [Compound 65]
< 100	50 to 75	≥ 7.60	299 (≈ 260 µg/mL)	203 (≈ 176 µg/mL)	–	–	–	–	–	–	–	–	–	–	C=CCn1c(=O)c2cnc(Nc3ccc(N4CCC(CN(C)C5CCN(c6cccc7c6n(C)c(=O)n7C6CCC(=O)NC6=O)CC5)CC4)cc3)nc2n1-c1cccc(C(C)(C)O)n1 (centres unmarked) [Compound 61]

— US20250049798A1, “WEE1 PROTEIN KINASE DEGRADATION AGENT AND USE THEREOF” (HANGZHOU GLUBIO PHARMACEUTICAL CO. LTD., priority 2021, published 2025)
